Data reported in the NIST ThermoML archive (doi:10.1016/j.fluid.2017.06.024).
Numbers after ± are expanded uncertainties.

Experiment: molar heat capacity at constant pressure
Details: 100 kPa, Liquid, DSC

With `CC(C)OC(C)C` [diisopropyl ether] the “molar heat capacity at constant pressure” value (290.5 K) was 210.58 ± 8.6 J/K/mol, the “molar heat capacity at constant pressure” value (295.44 K) was 212.42 ± 8.6 J/K/mol and the “molar heat capacity at constant pressure” value (300.38 K) was 214.46 ± 8.7 J/K/mol. The “molar heat capacity at constant pressure” value (305.32 K) was 216.51 ± 8.8 J/K/mol, the “molar heat capacity at constant pressure” value (310.26 K) was 218.55 ± 8.9 J/K/mol and the “molar heat capacity at constant pressure” value (315.19 K) was 220.6 ± 9 J/K/mol. For the same compound, the “molar heat capacity at constant pressure” value (320.13 K) was 222.64 ± 9.1 J/K/mol, the “molar heat capacity at constant pressure” value (325.07 K) was 224.68 ± 9.1 J/K/mol and the “molar heat capacity at constant pressure” value (330.01 K) was 226.93 ± 9.2 J/K/mol. For the same compound, the “molar heat capacity at constant pressure” value (334.95 K) was 229.08 ± 9.3 J/K/mol and the “molar heat capacity at constant pressure” value (339.89 K) was 231.22 ± 9.4 J/K/mol.
